Our source for the relative viability values is the supplement of paper PMC10307832.

Assay in all cases: relative viability (nuclei count vs DMSO), 5 days (fraction); higher = more cells survive
Compound in assay [1]: C1CSC2=C(C(=O)N1)SC3=C2C=C(C=C3)O [kb NB 142-70] + CC(C)C[C@H](NC(=O)[C@H](Cc1ccccc1)NC(=O)c1cnccn1)B(O)O [Bortezomib] (partner 0.002 µM)
The essentials:
(§1)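 Relative viability divides the nuclei count in treated wells by that in vehicle wells. Lung cancer cell lines were seeded in 1536-well plates, dosed by pin tool the next day, and fixed and stained after 5 days in one step with final 0.05% Triton X-100, 1% formaldehyde and 1 ug/ml Hoechst. Dosing was a single drug or a fixed anchor-drug dose plus five library-drug doses (not always all listed) in √10 steps, and values are medians of duplicate plates imaged at 4×.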

Compound in assay [2]: C1CSC2=C(C(=O)N1)SC3=C2C=C(C=C3)O [kb NB 142-70] + CC1(C)CCC(c2ccc(Cl)cc2)=C(CN2CCN(c3ccc(C(=O)NS(=O)(=O)c4ccc(N[C@H](CCN5CCOCC5)CSc5ccccc5)c(S(=O)(=O)C(F)(F)F)c4)cc3)CC2)C1 [Navitoclax] (partner 0.5 µM)
The essentials:
as §1

Compound in assay [3]: C1CSC2=C(C(=O)N1)SC3=C2C=C(C=C3)O [kb NB 142-70] + Nc1nc2[nH]cc(CCc3ccc(C(=O)N[C@@H](CCC(=O)O)C(=O)O)cc3)c2c(=O)[nH]1 [Pemetrexed] (partner 0.2 µM)
The essentials:
as §1

Compound in assay [4]: NCC(=O)Nc1ccc(-n2nc(C(F)(F)F)cc2-c2ccc3c(ccc4ccccc43)c2)cc1 + N=C(N)NC(=N)NCCc1ccccc1 [Phenformin] (partner 250 µM)
The essentials: as §1

Compound in assay [5]: NCC(=O)Nc1ccc(-n2nc(C(F)(F)F)cc2-c2ccc3c(ccc4ccccc43)c2)cc1 + Nc1nc2[nH]cc(CCc3ccc(C(=O)N[C@@H](CCC(=O)O)C(=O)O)cc3)c2c(=O)[nH]1 [Pemetrexed] (partner 0.2 µM)
In outline: as §1

Consider 201T, for which the relative viability in assay [1] (first compound 0.1 µM) amounted to 1.09; in assay [1] (first compound 1 µM) it was 1.17; in assay [1] (first compound 3.162 µM), 1.11; in assay [2] (first compound 0.1 µM), 1.22; in assay [2] (first compound 1 µM), 1.26; in assay [2] (first compound 3.162 µM) it was 1.17. The relative viability in assay [3] (first compound 0.1 µM) turned out to be 0.315; in assay [3] (first compound 1 µM) it was 0.349; in assay [3] (first compound 3.162 µM), 0.318; in assay [4] (first compound 0.02 µM) it was 0.448; in assay [4] (first compound 0.06325 µM), 0.489; in assay [4] (first compound 0.2 µM), 0.408. Also, the relative viability in assay [4] (first compound 0.6325 µM) stood at 0.466; in assay [4] (first compound 2 µM), 0.446; in assay [5] (first compound 0.02 µM) it was 0.321; in assay [5] (first compound 0.06325 µM), 0.32; in assay [5] (first compound 0.2 µM), 0.326; in assay [5] (first compound 0.6325 µM), 0.301. In assay [5] (first compound 2 µM), the relative viability came to 0.311.

On to A549, for which the relative viability in assay [2] (first compound 0.1 µM) was found to be 1.27; in assay [2] (first compound 1 µM), 1.08; in assay [2] (first compound 3.162 µM), 0.142; in assay [4] (first compound 0.02 µM) it was 0.0913; in assay [4] (first compound 0.06325 µM), 0.168; in assay [4] (first compound 0.2 µM), 0.0781. The relative viability was 0.198 in assay [4] (first compound 0.6325 µM) and 0.17 in assay [4] (first compound 2 µM).

As to A-427, the relative viability in assay [1] (first compound 0.1 µM) is 1.01; in assay [1] (first compound 1 µM) it was 1.05; in assay [1] (first compound 3.162 µM) it was 1.01; in assay [2] (first compound 0.1 µM), 1.03; in assay [2] (first compound 1 µM) it was 1.07; in assay [2] (first compound 3.162 µM) it was 0.962. Also, the relative viability in assay [3] (first compound 0.1 µM) was found to be 0.886; in assay [3] (first compound 1 µM) it was 1.01; in assay [3] (first compound 3.162 µM) it was 0.873; in assay [4] (first compound 0.06325 µM), 0.411; in assay [4] (first compound 0.2 µM), 0.315; in assay [4] (first compound 0.6325 µM), 0.334. For the same cell line, the relative viability in assay [4] (first compound 2 µM) turned out to be 0.352; in assay [5] (first compound 0.02 µM) it was 1; in assay [5] (first compound 0.06325 µM) it was 0.975; in assay [5] (first compound 0.2 µM), 1.02; in assay [5] (first compound 0.6325 µM), 0.974; in assay [5] (first compound 2 µM), 0.957.

ABC-1: the relative viability in assay [1] (first compound 0.1 µM) was determined as 0.373; in assay [1] (first compound 1 µM) it was 0.278; in assay [1] (first compound 3.162 µM), 0.239; in assay [4] (first compound 0.02 µM) it was 0.248; in assay [4] (first compound 0.06325 µM) it was 0.233; in assay [4] (first compound 0.6325 µM), 0.225. For the same cell line, in assay [4] (first compound 2 µM), the relative viability amounted to 0.245.

In the case of BEN, the relative viability in assay [1] (first compound 0.1 µM) is 0.942; in assay [1] (first compound 1 µM) it was 0.669; in assay [1] (first compound 3.162 µM), 0.418; in assay [2] (first compound 0.1 µM), 0.0749; in assay [2] (first compound 1 µM), 0.0596; in assay [2] (first compound 3.162 µM) it was 0.0617. The relative viability in assay [3] (first compound 0.1 µM) turned out to be 0.773; in assay [3] (first compound 1 µM), 0.761; in assay [3] (first compound 3.162 µM) it was 0.575; in assay [4] (first compound 0.02 µM) it was 0.249; in assay [4] (first compound 0.06325 µM) it was 0.239; in assay [4] (first compound 0.2 µM), 0.302. Also, the relative viability came out at 0.269 in assay [4] (first compound 0.6325 µM); 0.228 in assay [4] (first compound 2 µM); 0.782 in assay [5] (first compound 0.02 µM); 0.869 in assay [5] (first compound 0.06325 µM); 0.775 in assay [5] (first compound 0.2 µM); 0.758 in assay [5] (first compound 0.6325 µM). Moreover, in assay [5] (first compound 2 µM), the relative viability came to 0.688.

Turning to CAL-12T, the relative viability in assay [1] (first compound 0.1 µM) came to 1.01; in assay [1] (first compound 1 µM) it was 1.04; in assay [1] (first compound 3.162 µM) it was 0.819; in assay [2] (first compound 0.1 µM), 1.34; in assay [2] (first compound 1 µM) it was 1.16; in assay [2] (first compound 3.162 µM), 1.08. The relative viability was 1.11 in assay [3] (first compound 0.1 µM); 1.34 in assay [3] (first compound 1 µM); 1.27 in assay [3] (first compound 3.162 µM); 0.572 in assay [4] (first compound 0.02 µM); 0.601 in assay [4] (first compound 0.06325 µM); 0.586 in assay [4] (first compound 0.2 µM). For the same cell line, the relative viability in assay [4] (first compound 0.6325 µM) came out at 0.576; in assay [4] (first compound 2 µM), 0.627; in assay [5] (first compound 0.02 µM), 1.11; in assay [5] (first compound 0.06325 µM), 1.2; in assay [5] (first compound 0.2 µM) it was 1.2; in assay [5] (first compound 0.6325 µM) it was 1.12. Further, the relative viability in assay [5] (first compound 2 µM) turned out to be 0.97.

Take COR-L23: the relative viability in assay [1] (first compound 0.1 µM) was determined as 0.872; in assay [1] (first compound 1 µM), 0.913; in assay [1] (first compound 3.162 µM), 0.51; in assay [2] (first compound 0.1 µM), 0.941; in assay [2] (first compound 1 µM) it was 1.08; in assay [2] (first compound 3.162 µM) it was 0.324. The relative viability is 0.183 in assay [3] (first compound 0.1 µM); 0.201 in assay [3] (first compound 1 µM); 0.196 in assay [3] (first compound 3.162 µM); 0.394 in assay [4] (first compound 0.02 µM); 0.434 in assay [4] (first compound 0.06325 µM); 0.439 in assay [4] (first compound 0.2 µM). The relative viability turned out to be 0.44 in assay [4] (first compound 0.6325 µM); 0.417 in assay [4] (first compound 2 µM); 0.197 in assay [5] (first compound 0.02 µM); 0.203 in assay [5] (first compound 0.06325 µM); 0.209 in assay [5] (first compound 0.2 µM); 0.169 in assay [5] (first compound 0.6325 µM). For the same cell line, the relative viability in assay [5] (first compound 2 µM) worked out at 0.202.

On to COR-L 105, for which the relative viability in assay [1] (first compound 0.1 µM) worked out at 0.871; in assay [1] (first compound 1 µM), 0.828; in assay [1] (first compound 3.162 µM), 0.903; in assay [2] (first compound 0.1 µM), 0.746; in assay [2] (first compound 1 µM) it was 0.828; in assay [2] (first compound 3.162 µM), 0.727. In addition, the relative viability in assay [3] (first compound 0.1 µM) was determined as 1.14; in assay [3] (first compound 1 µM) it was 1.08; in assay [3] (first compound 3.162 µM), 0.925; in assay [4] (first compound 0.02 µM), 0.408; in assay [4] (first compound 0.06325 µM) it was 0.517; in assay [4] (first compound 0.2 µM), 0.5. Further, the relative viability stood at 0.539 in assay [4] (first compound 0.6325 µM); 0.492 in assay [4] (first compound 2 µM); 1.19 in assay [5] (first compound 0.02 µM); 1.21 in assay [5] (first compound 0.06325 µM); 1.09 in assay [5] (first compound 0.2 µM); 1.23 in assay [5] (first compound 0.6325 µM). Also, the relative viability in assay [5] (first compound 2 µM) was 1.01.
